Results: ChEMBL document CHEMBL5321233, “Biological activity of 1,2,3-triazole-2-amino-1,4-naphthoquinone derivatives and their evaluation as therapeutic strategy for malaria control” (Eur J Med Chem, 2023)
Calls of active or inactive are those of the source. The calls are words filed in the database; no cut-off is given here.

What was measured:
[1] = Acute toxicity in Albino Swiss mouse assessed as signs of hyperemia at 300 mg/kg, po administered as single dose measured after 14 days; format: organism-based; settings: in vivo, 336 h, time 14 day
Plasmodium berghei [2] = assay: Antimalarial activity against Plasmodium berghei ANKA infected in Albino Swiss mouse assessed as reduction in parasitemia at 15 mg/kg, po administered for 4 consecutive days measured after day 7 relative to control; format: functional; set-up: scale not given: the % may be the effect or the level left; settings: time 7 day
[3] = Acute toxicity in Albino Swiss mouse assessed as aggressiveness at 300 mg/kg, po administered as single dose measured after 14 days; format: organism-based; settings: in vivo, 336 h, time 14 day
[4] = Acute toxicity in Albino Swiss mouse assessed as change in relative weight of kidney at 300 mg/kg, po administered as single dose measured after 14 days; format: organism-based; settings: in vivo, 336 h, time 14 day
Plasmodium berghei [5] = assay: Antimalarial activity against Plasmodium berghei ANKA infected in Albino Swiss mouse assessed as reduction in parasitemia at 30 mg/kg, po administered for 4 consecutive days measured after day 7 relative to control; format: functional; set-up: scale not given: the % may be the effect or the level left; settings: time 7 day
Plasmodium berghei [6] = assay: Antimalarial activity against Plasmodium berghei ANKA infected in Albino Swiss mouse assessed as reduction in parasitemia at 30 mg/kg, po administered for 4 consecutive days measured after day 5 relative to control; format: functional; set-up: scale not given: the % may be the effect or the level left; settings: time 5 day
[7] = Cytotoxicity against African green monkey Vero cells incubated for 24 hrs by MTT assay; format: toxicity, cell-based; settings: chlorocebus sabaeus
[8] = Acute toxicity in Albino Swiss mouse assessed as change in relative weight of spleen at 300 mg/kg, po administered as single dose measured after 14 days; format: organism-based; settings: in vivo, 336 h, time 14 day
[9] = Toxicity in Albino Swiss mouse infected with Plasmodium berghei ANKA assessed as mortality rate at 15 to 30 mg/kg, po administered for 4 consecutive days measured for 14 days relative to control; format: organism-based; settings: in vivo, dose 15-30 mg/kg, time 14 day, read-out: Activity
Plasmodium berghei [10] = assay: Antimalarial activity against Plasmodium berghei ANKA infected in Albino Swiss mouse assessed as reduction in parasitemia at 15 mg/kg, po administered for 4 consecutive days measured after day 5 relative to control; format: functional; set-up: scale not given: the % may be the effect or the level left; settings: time 5 day
[11] = Acute toxicity in Albino Swiss mouse assessed as signs of toxicity at 300 mg/kg, po administered as single dose measured after 14 days; format: organism-based; settings: in vivo, 336 h, time 14 day
[12] = Acute toxicity in Albino Swiss mouse assessed as change in diarrhea at 300 mg/kg, po administered as single dose measured after 14 days; format: organism-based; settings: in vivo, 336 h, time 14 day
[13] = Acute toxicity in Albino Swiss mouse assessed as change in relative weight of liver at 300 mg/kg, po administered as single dose measured after 14 days; format: organism-based; settings: in vivo, 336 h, time 14 day
[14] = Acute toxicity in Albino Swiss mouse assessed as change in motor function at 300 mg/kg, po administered as single dose measured after 14 days; format: organism-based; settings: in vivo, 336 h, time 14 day
Plasmodium falciparum = assay: Induction of morphological changes in chloroquine-resistant Plasmodium falciparum W2 trophozoites assessed as degraded cytoplasm by TEM analysis; format: functional, organism-based
[15] = Acute toxicity in Albino Swiss mouse assessed as behavioural toxicity at 300 mg/kg, po administered as single dose measured after 14 days; format: organism-based; settings: in vivo, 336 h, time 14 day
Plasmodium berghei [16] = assay: Antimalarial activity against Plasmodium berghei ANKA infected in Albino Swiss mouse assessed as half-survival time at 30 mg/kg, po administered for 4 consecutive days measured for 30 days (reference value: 16 day); format: functional; settings: time 30 day
[17] = Acute toxicity in Albino Swiss mouse assessed as change in sensory function at 300 mg/kg, po administered as single dose measured after 14 days; format: organism-based; settings: in vivo, 336 h, time 14 day
[18] = Acute toxicity in Albino Swiss mouse assessed as change in urination volume at 300 mg/kg, po administered as single dose measured after 14 days; format: organism-based; settings: in vivo, 336 h, time 14 day
[19] = Acute toxicity in Albino Swiss mouse assessed as signs of cyanosis at 300 mg/kg, po administered as single dose measured after 14 days; format: organism-based; settings: in vivo, 336 h, time 14 day
[20] = Acute toxicity in Albino Swiss mouse assessed as escape reaction at 300 mg/kg, po administered as single dose measured after 14 days; format: organism-based; settings: in vivo, 336 h, time 14 day
Plasmodium berghei [21] = assay: Antimalarial activity against Plasmodium berghei ANKA infected in Albino Swiss mouse assessed as half-survival time at 15 mg/kg, po administered for 4 consecutive days measured for 30 days (reference value: 16 day); format: functional; settings: time 30 day
[22] = Acute toxicity in Albino Swiss mouse assessed as signs of pallor at 300 mg/kg, po administered as single dose measured after 14 days; format: organism-based; settings: in vivo, 336 h, time 14 day
[23] = Acute toxicity in Albino Swiss mouse assessed as change in defecation at 300 mg/kg, po administered as single dose measured after 14 days; format: organism-based; settings: in vivo, 336 h, time 14 day
[24] = Acute toxicity in Albino Swiss mouse assessed as contortions at 300 mg/kg, po administered as single dose measured after 14 days; format: organism-based; settings: in vivo, 336 h, time 14 day
HepG2 = assay: Cytotoxicity against human HepG2 cells incubated for 24 hrs by MTT assay; format: functional
[25] = Acute toxicity in Albino Swiss mouse assessed as change in urine color at 300 mg/kg, po administered as single dose measured after 14 days; format: organism-based; settings: in vivo, 336 h, time 14 day

For CCN(CC)CCCC(C)Nc1ccnc2cc(Cl)ccc12 (configuration not stated) [CHLOROQUINE], the Activity [1] was “Non-Toxic”, the Activity (Plasmodium berghei [2]) was 92% and the Activity [3] was “Non-Toxic”. The Activity [4] was “Non-Toxic”, the Activity (Plasmodium berghei [5]) was 98% and the Activity (Plasmodium berghei [6]) was 99%. For the same molecule, the CC50 at 24 h [7] was 35.8 µM, the Activity [8] was “Non-Toxic” and the mortality at 336 h [9] was 20%. The Activity (Plasmodium berghei [10]) was 95%, the Activity [11] was “Non-Toxic” and the Activity [12] was “Non-Toxic”. The Activity [13] was “Non-Toxic”, the Activity [14] was “Non-Toxic” and the Activity (Plasmodium falciparum) was “Active”. The Activity [15] was “Non-Toxic”, the Survival (Plasmodium berghei [16]) was 26 days and the Activity [17] was “Non-Toxic”. The Activity [18] was “Non-Toxic”, the Activity [19] was “Non-Toxic” and the Activity [20] was “Non-Toxic”. For the same molecule, the Survival (Plasmodium berghei [21]) was 26 days, the Activity [22] was “Non-Toxic” and the Activity [23] was “Non-Toxic”. For the same molecule, the Activity [24] was “Non-Toxic”, the CC50 (HepG2) was over 200 µM and the Activity [25] was “Non-Toxic”.
